Here are results for three compounds from US6905834B1, “Bioluminescent bioreporter integrated circuit detection methods” (UT-Battelle, LLC, priority 1997, dated 2005).

Each structure is given as a SMILES string.

For one data set, the system named is N. europaea Km^r hao-lux. The data set is described as follows: Bioluminescence response of N. europaea hao-lux fusion to NH4+. In kind it is cell-based, Nitrosomonas europaea. The procedure:
The NH4^+ detection limits were determined to be 20 μM at 30 min of exposure and 10 μM at 60 min or 90 min of exposure (threefold increase over background bioluminescence).

Data set [1] in a line: Adsorption isotherms on calcium alginate. In kind it is physicochemical. The procedure:
Tracer concentrations were measured using a Waters ion-chromatography system with a series 510 HPLC pump, IC-PAK anion exchange column, and 431 conductance detector (Waters, Cam-bridge, MA) or monitored continuously using fluorescence.

A further data set deals with P. fluorescens HK44. The class given is cell-based, Pseudomonas fluorescens. The text has this: A previously developed PBR system with on-line instrumentation (Webb, 1992; Webb et al., 1991) was used to measure bacterial degradative and bioluminescent activity under conditions mimicking those of the subsurface. The reactor design is detailed in FIG. 21. The PBR was temperature controlled and fitted with metal frits welded to the inlet and outlet to retain and distribute feed to immobilized cultures. An additional inter-cavity insert allowed the installation of filters (e.g., […] inorganic and polymeric) between the packed bed and outlet frit that filtered the effluent for automatic injection into the on-line high-performance liquid chromatography (HPLC) and that produced a uniform resistance to flow that improved the overall distribution to the reactor (Webb, 1992). […] HPLC pumps supplied media to each reactor from pressurized feed reservoirs. All nutrients, including oxygen, entered the reactor dissolved in the liquid phase. Naphthalene and salicylate were detected with an on-line HPLC using a Vydac TP20154 column (Sep/A/Ra/Tions Group, Hesperia, Calif.) with a FL-4 dual-monochromator fluorescent detector (Perkin-Elmer, Norwalk, Conn.). Respective excitation and emission wavelengths for salicylate detection were 290 and 360 nm. The reactor was fitted with an on-line light detector for monitoring bioluminescent activity (Dunbar, 1992) consisting of a glued fiber bundle (Ensign Bickford Optics, Simsbury, Conn.) placed approximately 2.5 cm from the entrance of the reactor. An Oriel Inc. (Stratford, Conn.) 7070 photomultiplier detection system using a Model 77348 photomultiplier tube (radiant sensitivity of […] near 500 nm) were employed.
Mineral salts media (pH 7.2) consisting of MgSO4 7H2O ([…]), NH4NO3 ([…]), trizma™ base ([…]), MgO (1.0×10^−3 g/l), CaCl2 (2.9×10^−4 g/l), FeCl3.6H2O (5.4×10^−4 g/l), ZnSO4.7H2O (1.4×10^−4 g/l), CuSO4 (2.5×10^−5 g/l), […] (6.2×10^−6 g/l), and Na2MoO4.H2O (4.9×10^−5 g/l) were supplied to the reactor with an appropriate carbon source for degradation and bioluminescence studies. Kinetic bacterial studies were phosphate limited and maintained aerobic by con-trolled pressurization of feeds and the reactor.
The HK44 was prepared for immobilization by adding freshly thawed inoculum (frozen at −70° C. until use) to 100 mL of YEPG media which contained glucose (1.0 g/l), polypeptone (2.0 g/l), yeast extract (0.2 g/l), NH4NO3 (0.2 g/l), and tetracycline (14 mg/l). The culture was shaken for 15 hours at 25° C. and then centrifuged at 8000 rpm for 10 minutes. The pellet was then washed with 0.9% NaCl solution three times before immobilization. The concentration of HK44 was enumerated by measuring optical density at 546 nm. The HK44 was immobilized by suspending bacteria in 0.9% NaCl solution and mixing with a low-viscosity alginate (28 g/L) and NaCl (9 g/L) solution in a ratio of 1:2 by volume. Beads were formed by controlled dropwise addition to 0.1 M CaCl2 solution by a syringe needle installed in an air jet controlled by a precision regulator (Porter Instrument Co., Hatfield, Pa.) and a piece of 0.003-in. (i.d.) tubing. Beads diameters were measured using gentle wet sieving. Alginate beads were dissolved in 50 mM sodium hexametaphosphate. […]

The nature of data set [2]: Model parameters for naphthalene (diffusion, equilibrium constant). In kind it is physicochemical. The text has this:
Biot numbers were on the order of 100. Effectiveness factor calculations using the best-fit first-order reaction rate constant indicate that the beads were limited by the reaction rate and not by internal mass transfer resistance. The good fit obtained using the analytical solution, wherein external and internal mass transfer was assumed negligible, also support the conclusion that mass transfer effects were minimal. The model predicts that the salicylate distribution reaches a steady state within an alginate bead (99% of final) in about 7 minutes. Even assuming that the diffusion coefficient was reduced by an order of magnitude in the alginate matrix, a steady state was reached within 15 min. […] Cell volume estimated at less than 1% probably had little effect on diffusion. The model also predicted that liquid mass transfer resistance would have little effect on reaching steady state. […] A positive 50% error in the measured adsorption coefficient would result in doubling the time required to reach steady state. […] Model parameters have been measured (liquid mass transfer coefficient, pellet void volume, and adsorption coefficients), reported, and estimated. Respective coefficients for naphthalene were […], 9.0×10^−8 cm^2 s^−1 and 8.4 cm^2 s mol^−1 for liquid diffusion, solid diffusion, and Langmuir equilibrium constants. Companion free cell studies are needed to further aid evaluation of free and immobilized kinetics and response.

Another data set concerns HK44 cells. Particulars: liquid assays; cited from earlier work.
For another data set, the system named is S. cerevisiae HER. Briefly: Sol-gel encapsulated yeast β-galactosidase bioreporter for estrogenic activity. The settings on record: over a seven day period; comparable to non-encapsulated positive control. The class given is cell-based, Saccharomyces cerevisiae. The procedure: Sol-gel encapsulation studies substituting another yeast strain, S. cerevisiae HER, a β-galactosidase bioreporter for estrogenic activity were conducted. Strain HER was successfully incorporated into the sol-gel matrix while retaining responsiveness to the estrogen inducer β-estradiol.

With `N.N.O=S(=O)(O)O` [NH4^+, (NH4)2SO4], the “NH4^+ detection limit (threefold increase over background bioluminescence)” value with N. europaea Km^r hao-lux (30 min of exposure) turned out to be 20 µM; with N. europaea Km^r hao-lux (60 min or 90 min of exposure), 10 µM.
With `c1ccc2ccccc2c1` [naphthalene], the “adsorption on calcium alginate (in words)” value in data set [1] is “adsorbed linearly”. Also, the “adsorption isotherm on calcium alginate, dimensionless ratio” value in data set [1] (linear isotherm) is 8.4. Also, the “Bioluminescence ± σ” value in the data set with P. fluorescens HK44 (experiment 5b, biomass […] 10^9 cells/mL, sodium salicylate 2.5 mg/L plus naphthalene 8.0, τ 15 min) is given as 4.79 ± 3.18 × 10^−1 nA. Moreover, in the data set on P. fluorescens HK44 (identical conditions, alginate-immobilized HK44), the “steady-state light response to naphthalene relative to response to salicylate” value was “approximately two orders of magnitudes greater”. In data set [2], the Langmuir equilibrium constant was determined as 8.4 cm^2 s mol^−1, the liquid diffusion coefficient is 9.0×10^6 cm^2 s^−1 and the solid diffusion coefficient was 9.0×10^−8 cm^2 s^−1. Further, in the data set with HK44 cells, the “linear luminescence response, lower concentration” value is 0.72 µg/L and the “linear luminescence response, upper concentration” value is 3.25 mg/L.
For the compound `C[C@]12CC[C@@H]3c4ccc(O)cc4CC[C@H]3[C@@H]1CC[C@@H]2O` [β-estradiol], in the data set with S. cerevisiae HER, the “estrogenic response of sol-gel encapsulated yeast cells (in words)” value is recorded as “an estrogenic response was initiated”.
